This is an account of results in patent US20240082221A1, “COMPOSITIONS AND METHODS FOR THE IDENTIFICATION OF COMPOUNDS THAT PROTECT AGAINST LIPOFUSCIN CYTOTOXICITY” (priority 2021, published 2024).

One assay has as its system hfRPE. As to the kind of experiment: Light-independent lipofuscin cell-death/viability assay in hfRPE. It counts as cell-based, Human. As to the method: Cell culture. Human retinal pigment epithelium (ARPE-19) cells were obtained from ATCC and were cultured in Dulbecco's modified Eagle's medium (DMEM) supplemented with 10% FBS and 1% penicillin/streptomycin. Cells were kept in an incubator with 5% C02 and 95% humidified air at 37° C. Human fetal RPE (hfRPE) cells from donors at 16 to 18 weeks gestation were cultured at 37° C., 5% C02 in RPE medium. To grow polarized hfRPE cells, the cells were seeded in 12 well transwell plate in 1% RPE medium with Rock kinase inhibitor for the first week. After the first week, cells were cultured in normal 1% RPE medium for 3 weeks. Cells were used in passage 1.
Real time monitoring of necrotic and apoptotic cell-death.

A further assay has as its system human MLKL. The assay can be described thus: Western blot of Ser358 phospho-MLKL, phosphorylation and polymerization of MLKL. Format: cell-based. Conditions: non-reducing conditions, cells with A2E/ATRD. The procedure: Immunoblotting. Total cell lysates were extracted using RIPA lysis buffer (50 mM TrisHCl, Ph 8.0, 150 mM NaCl, 1% NP40, 0.5% Sodium Deoxycholate, 0.1% SDS, protease-phosphatase inhibitor) after the incubation of the specific sample group in a 48 well plate. Sonication or syringing (20 times) was done followed by centrifugation at 12,000×g for 10 mins and the supernatant was collected and stored in −80° C. Proten concentration from homogenates were assessed by Pierce Rapid Gold BCA protein assay kit (ThermoFisher Scientific, cat.no. A53225). Then 30 μg of protein was analyzed by standard SDS-PAGE gel. Samples were mixed 4:1 (v:v) with Nupage loading buffer with or without 8% 0-mercaptoethanol and heated for 10 min at 72° C. SDS-PAGE was done using 4-12% Nupage gel and buffer (Life, NP0335BOX). Next, SDS-PAGE gel was transferred to nitrocellulose membrane (Whatman, PROTAN BA83) overnight at 20V. The following day, 5% milk in TBS was used for 2 h blocking the membrane and then primary antibody was added in TBST (TBS, 0.1% Tween-20) for overnight at 4° C. Next day membranes were washed and incubated for 2 hours at room temperature with HRP conjugated secondary antibody (cat #G21234, Invitrogen) at 1:10,000 dilution. After 3 more washed membranes were probed with enhanced chemiluminescence (ECL) reagent and detected using an X-ray films for chemiluminescence image (GE healthcare, RPN2106). Scanning/imaging and quantitation of the image was done using silverfast 8 application software and Fiji Image J. Antibodies for Western blotting were list in FIG. 10.
For its phosphorylation, MLKL and its kinase need to be recruited into multiprotein complexes, known as necrosomes (FIG. 4O). Necrosomes are not well conserved among species and vary also with the nature of the stimuli that triggers their formation. […] Considering that phosphorylation of human MLKL at Ser358 (pMLKL), is a hallmark triggering event and marker of necroptosis, the Ser358-phosphorylation and polymerization status of MLKL in cells with LF was determined. […] A prerequisite for the assembly of these RIP kinases into necrosomes was their phosphorylation.
A general note: A western blot detects proteins with antibodies after separation by electrophoresis.

The subject of another assay is XBP1s. The assay can be described thus: Intravitreal treatment of DKO mice, XBP1s immunostaining of RPE flat mounts. Format: in vivo, ABCA4−/− RDH8−/− double knock-out mice (DKO). Conditions: 26 month old DKO mice, intraocular, a week later, vs mock treated eyes. The procedure:
Animals. Pigmented ABCA4^−/− RDH8^−/− double knock-out mice (DKO), free of rd8 mutation, were purchased from Jackson laboratories and every 10 generations were in house backcrossed to the C57BL6J control strain, to prevent genetic drifts. Genotyping was performed at Transnetyx (Memphis, TN). Only mice with ABCA4, RDH8, RPE65-Leu450 but no crb1 mutations (retinal degeneration slow) were maintained in the colony. Controls C57BL/6J (Rpe65-Leu450, crb1negative) were also Jackson's lab. All mice were housed at Weill Cornell Medicine's animal facility under a 12 h light (˜10 lux)/12 h dark cycle environment or under complete darkness. Experimental manipulations in the dark were done under dim red light transmitted through a Kodak No. 1 safelight filter (transmittance >560 nm). No retinal degeneration or necroptosis markers were appreciably detected in 20 months or older C57BL6/N (Rpe65-Met450, crb1 positive) obtained from the NAI/NIH. All animal procedures and experiments were approved by the Animal Care and Use Committee of Weill Cornell Medical College in agreement with the guidelines established by the NIH Office of Laboratory Animal Welfare and the Association of Research for Vision and Ophthalmology (ARVO) statement for the use of animals in ophthalmic research. […]
Pharmacological treatment of mice. […] The exact volume of Mock reagent or Kira6 was determined by 10 μl Hamilton syringe. […]

The next assay has as its system IRE1α. As to the kind of experiment: qPCR of spliced XBP1 (XBP1s) as readout of IRE1α activity in ARPE-19. It counts as cell-based, Human. Conditions: ARPE-19, qPCR. From the text:
RNA isolation and quantitative PCR. Total RNA was extracted from cultured cells or mouse eye RPE layer using the RNeasy Mini kit (QIAGEN). The total RNA was digested with deoxyribonuclease I to prevent amplification of genomic DNA. The total RNA then was reversed transcribed using High-Capacity cDNA Reverse Transcription Kit (ThermoFisher Scientific, cat.no. 4368814) and analyzed gene expression using SYBR Green Master Mix (ThermoFisher Scientific, cat.no. 4472908) in an Applied Biosystems StepOne real time PCR machine. GAPDH was used as a reference gene. […] After genes were amplified by real time PCR, some of the PCR products were separated by 2.5% agarose gel.

For the compound `CC(C)(C)c1nc(-c2ccc(NC(=O)Nc3cccc(C(F)(F)F)c3)c3ccccc23)c2c(N)nccn12` [KIRA6], in the assay with hfRPE, the “survival to LF in hfRPE” value was “promote survival to LF”. Also, the “effect on LF-induced phosphorylation and polymerization of MLKL” value in the assay on human MLKL was “prevents phosphorylation and polymerization of MLKL”. The “XBP1s staining of whole RPE flat mounts” value in the assay on XBP1s was “decreased from the center to the periphery”.

As to `N=C1S/C(=C\c2cn[nH]c2-c2ccc(F)cc2)C(=O)N1c1nccs1` [Nec7, Necrostatin 7], the “survival to LF in hfRPE” value with hfRPE is recorded as “promote survival to LF”. The “effect on LF-induced phosphorylation and polymerization of MLKL” value in the assay with human MLKL was “reduced LF-induced phosphorylation and polymerization of MLKL”. Further, the “effect on LF-induced XBP1 splicing (XBP1s, IRE1α activity)” value in the assay on IRE1α is listed as “completely abrogated”.
